Reference: publication PMC7906020, “Trp-Containing Antibacterial Peptides Impair Quorum Sensing and Biofilm Development in Multidrug-Resistant Pseudomonas aeruginosa and Exhibit Synergistic Effects With Antibiotics” (Frontiers in Microbiology, 2021)
Peptide text beside a SMILES is read from it.

What was measured:
Format in all cases: cell-based, Pseudomonas aeruginosa
[1] = tested on: OprD gene expression in MRPA0108; assay: Real-time qPCR of porin gene OprD; details: peptide at its MIC (I1W 6.25 μM, L12W 25 μM); Supplementary Figure S2
Method: (§1) Mid-logarithmic (mid-log) growth-phase MRPA0108 cells (1 × 10^8 CFU/ml) were incubated with the different concentrations of peptide at 37°C for 18 h. The bacterial cells were collected by centrifugation at 13,000×g and digested in lysis buffer containing 10 mg/ml lysozyme. Total RNA was isolated by using a TRIzol® Max^TM Kit (Invitrogen, Shanghai, China) according to the manufacturer’s instructions and subsequently reverse transcribed into cDNA using a Prime Script RT Master Mix Kit (Takara, Dalian, China). Real-time PCR was performed in an ABI QuantStudio^TM 5 sequence detection system (Applied Biosystems, United States) using 2 × SYBR Premix Ex Taq II (Solarbio Science and Technology Co., Ltd.). The PCR cycling conditions were as follows: 95°C for 30 s and 40 cycles of 5 s at 95°C, 30 s at 60°C, and 20 s at 72°C. The fold changes calculated according to the comparative cycle threshold (Ct) method were used for quantifying gene expression, normalizing to the expression of the housekeeping gene rpsL. PCR primers, including those for lasA, lasB, rhlA, rhlB, pelA, algD, psl, oprD, oprM, mexA, and mexB, were synthesized by Sangon Biotech (Shanghai, China) and are presented in Supplementary Table S2.

[2] = tested on: OprM gene expression in MRPA0108; assay: Real-time qPCR of efflux pump gene OprM; details: peptide at its MIC (I1W 6.25 μM, L12W 25 μM); Supplementary Figure S2
Method: as §1

[3] = tested on: LasB elastase of MRPA0108; assay: LasB elastase activity, elastin-Congo red method; details: peptide at 1/4 × MIC, 24 h, 37°C; ECR substrate, OD495/OD600; vs control; triplicate
Method: (§2) The culture supernatant was obtained after centrifugation at 12,000×g for 10 min. (1) LasB elastase activity was measured using elastin-Congo red (ECR) as the substrate, as described by [Pattnaik et al. (2018)]. Briefly, 100 μl of the culture supernatant was added to 900 μl of ECR buffer (100 mM Tris-HCl, 1 mM CaCl2, pH 7.5) containing 10 mg of ECR and then incubated with shaking at 37°C for 18 h. Then, 100 μl of 0.12 M EDTA was added to stop the reaction. The insoluble ECR was removed by centrifugation, and the supernatant absorbance was measured at 495 nm. The optical density (OD) 495 nm/OD 600 nm represents the elastase activity. (2) LasA protease activity was measured as follows ([Pattnaik et al., 2018]): first, the culture supernatant was filtered to remove the bacterial cells, and then 150 μl of sterile-filtered supernatant was added to 2% azocasein (prepared in 50 mM Tris-HCl) and incubated for 4 h at 37°C. Trichloroacetic acid (TCA, 10%) was added to precipitate the undigested substrate. After centrifugation at 10,000 rpm for 10 min, 1 M NaOH was added to the supernatant, and the relative protease activity was measured at OD 440 nm. (3) The pyocyanin assay was based on the absorbance of excreted pyocyanin at 520 nm in an acidic solution ([Kong et al., 2005]). Three milliliters of culture supernatant were mixed with 2 ml of chloroform for 20 min, and then the pyocyanin from the chloroform phase was reextracted using 0.2 M HCl for 15 min to obtain a pink-colored pyocyanin solution. The OD 520 nm was measured to evaluate the change in pyocyanin content. (4) Rhamnolipid detection was carried out as previously described ([Wittgens et al., 2011]). Briefly, 500 μl of culture supernatant was mixed with 500 μl of ethyl acetate and vortexed vigorously for 15 s to extract rhamnolipid. After centrifugation at 10,000×g for 5 min at 4°C, the organic phase containing rhamnolipids was obtained and evaporated at room temperature overnight. […] The absorbance was measured at 420 nm. (5) The level of C4-HSL was quantified by GC-MS as previously described ([Guo et al., 2012]).

MRPA0108 cells = assay: Intracellular antibiotic assay by HPLC; details: RP-HPLC of cell lysate
Method: Mid-log growth-phase bacteria were diluted to 1 × 10^8 CFU/ml and treated with I1W or L12W at concentrations ranging from 3.13 to 50 μM for 12 h at 37°C. After induction, the cultures were harvested by centrifugation at 12,000 rpm for 2 min, washed three times with PBS buffer (pH 7.2), and then incubated with lysozyme (20 mg/ml) at 37°C for 1 h in a water bath. After centrifugation at 12,000 rpm for 5 min, the supernatant of the cell lysates was collected, added to methanol (1:3) and vortexed to precipitate proteins. After recentrifugation at 12,000 rpm for 5 min, the supernatant was measured by using HPLC with a mobile phase of 0.1% trifluoroacetic acid/methanol (92:8, v/v) and a flow rate of 0.7 ml/min.

[4] = tested on: rhamnolipid production in MRPA0108; assay: Rhamnolipid production, orcinol method; details: peptide at 1/4 × MIC, 24 h, absorbance 420 nm, vs control, triplicate
Method: The culture supernatant was obtained after centrifugation at 12,000×g for 10 min. (1) LasB elastase activity was measured using elastin-Congo red (ECR) as the substrate, as described by [Pattnaik et al. (2018)]. Briefly, 100 μl of the culture supernatant was added to 900 μl of ECR buffer (100 mM Tris-HCl, 1 mM CaCl2, pH 7.5) containing 10 mg of ECR and then incubated with shaking at 37°C for 18 h. Then, 100 μl of 0.12 M EDTA was added to stop the reaction. The insoluble ECR was removed by centrifugation, and the supernatant absorbance was measured at 495 nm. The optical density (OD) 495 nm/OD 600 nm represents the elastase activity. (2) LasA protease activity was measured as follows ([Pattnaik et al., 2018]): first, the culture supernatant was filtered to remove the bacterial cells, and then 150 μl of sterile-filtered supernatant was added to 2% azocasein (prepared in 50 mM Tris-HCl) and incubated for 4 h at 37°C. Trichloroacetic acid (TCA, 10%) was added to precipitate the undigested substrate. After centrifugation at 10,000 rpm for 10 min, 1 M NaOH was added to the supernatant, and the relative protease activity was measured at OD 440 nm. (3) The pyocyanin assay was based on the absorbance of excreted pyocyanin at 520 nm in an acidic solution ([Kong et al., 2005]). Three milliliters of culture supernatant were mixed with 2 ml of chloroform for 20 min, and then the pyocyanin from the chloroform phase was reextracted using 0.2 M HCl for 15 min to obtain a pink-colored pyocyanin solution. The OD 520 nm was measured to evaluate the change in pyocyanin content. (4) Rhamnolipid detection was carried out as previously described ([Wittgens et al., 2011]). Briefly, 500 μl of culture supernatant was mixed with 500 μl of ethyl acetate and vortexed vigorously for 15 s to extract rhamnolipid. After centrifugation at 10,000×g for 5 min at 4°C, the organic phase containing rhamnolipids was obtained and evaporated at room temperature overnight. The rhamnolipid extract dissolved in ultrapure water was mixed with orcinol reagent (0.19% orcinol in 53% H2SO4) and incubated at 80°C for 30 min. The absorbance was measured at 420 nm. (5) The level of C4-HSL was quantified by GC-MS as previously described ([Guo et al., 2012]).

[5] = tested on: MRPA0108 biofilm formation; details: peptide at 1 × MIC, 24 h, 37°C; crystal violet OD 590 nm; vs control
Method: The biofilm formation of the MRPA0108 strain was assessed as described previously ([Shang et al., 2017]). Briefly, 50 μl of a mid-log growth-phase bacterial solution (1 × 10^5 CFU/ml) was placed into a 96-well microtiter plate and incubated overnight with 50 μl of peptide at a final concentration of 1/8 × MIC, 1/4 × MIC, 1/2 × MIC, or 1 × MIC. LB liquid medium and erythromycin were used as negative and positive controls, respectively. After 24 h of incubation at 37°C, planktonic bacteria were carefully removed, and the biofilms were fixed with formaldehyde for 15 min and stained with 0.1% (w/v) crystal violet (CV) dye for 5 min. Before being quantified by reading the absorbance at 590 nm in a microtiter plate reader (Varioskan Flash Microplate Reader, Thermo Fisher Scientific Co., Beijing), biofilms were washed and solubilized with 95% ethanol. The OD 590 nm was determined as a measure of biofilm biomass.

[6] = tested on: pyocyanin production in MRPA0108; assay: Pyocyanin production assay; details: peptide at 1/4 × MIC, 24 h; OD 520 nm; vs untreated control; triplicate
Method: as §2, with “Trichloroacetic acid (TCA, 10%) was added to precipitate the undigested substrate.” left out, “Three milliliters of culture supernatant were mixed with 2 ml of chloroform for 20 min, and then the pyocyanin from the chloroform phase was reextracted using 0.2 M HCl for 15 min to obtain a pink-colored pyocyanin solution.” left out, “content.” for “content. (4) Rhamnolipid detection was carried out as previously described ([Wittgens et al., 2011]). Briefly, 500 μl of culture supernatant was mixed with 500 μl of ethyl acetate and vortexed vigorously for 15 s to extract rhamnolipid. After centrifugation at 10,000×g for 5 min at 4°C, the organic phase containing rhamnolipids was obtained and evaporated at room temperature overnight.”

[7] = range over peptide 3.13 to 50 μM, 12 h 37°C

CC[C@H](C)[C@H](NC(=O)[C@H](CCCCN)NC(=O)[C@H](CO)NC(=O)[C@H](CC(C)C)NC(=O)[C@@H](NC(=O)[C@H](CCCCN)NC(=O)[C@H](CCCCN)NC(=O)[C@@H](N)Cc1c[nH]c2ccccc12)[C@@H](C)CC)C(=O)N[C@@H](CCCCN)C(=O)N[C@@H](CCCCN)C(=O)N[C@@H](CC(C)C)C(=O)N[C@@H](CC(C)C)C(=O)N[C@@H](CCCCN)C(N)=O [I1W] (H-WKKILSKIKKLLK-NH2; N-terminus and C-terminus assumed) was tested, and the “reduction of OprD gene expression” value [1] was 27%, the “reduction of OprM gene expression” value [2] was 22.3% and the “decrease of LasB elastase activity” value [3] was 21.0%. For the same molecule, the “increase of ceftazidime content in MRPA0108 cells” value (MRPA0108 cells; peptide at its MIC) was 19%, the “increase of levofloxacin content in MRPA0108 cells” value (MRPA0108 cells; peptide at its MIC) was 1% and the “increase of piperacillin content in MRPA0108 cells” value (MRPA0108 cells; peptide at its MIC) was 17%. For the same molecule, the “increase of ceftazidime content in MRPA0108 cells” value (MRPA0108 cells; [7]) was 7.5-100%, the “increase of levofloxacin content in MRPA0108 cells” value (MRPA0108 cells; [7]) was 0.01–22% and the “increase of piperacillin content in MRPA0108 cells” value (MRPA0108 cells; [7]) was 8–80%. For the same molecule, the “inhibition of rhamnolipid production” value [4] was 45.2%, the “reduction of biofilm formation” value [5] was 53% and the “reduction of pyocyanin production” value [6] was 73.7%.
